Read-outs that look alike come from different tables or passages of the source.
How the values were obtained:
sludge microorganisms [1] = details: for Growth Yield / Specific Activity / Growth Yield Reduction: flash mixing, 52 days; for Growth Yield Reduction: vs untreated control
Text: A series of semi-continuous chemostat reactors was constructed to simulate wastewater treatment processes.
The central part of the equipment is the biological chemostat reactor 1. The reactor vessel 2 is made of glass, with an internal volume of 10 liters and is fitted with pH 3 and dissolved oxygen 4 sensors and an air sparge 5. This contains the sludge, which is, essentially, a mass of typical wastewater treatment microorganisms. The reactor operates at an ambient temperature (approximately 20° C.).
Simulated wastewater 13 is contained in a separate vessel 6 and maintained at 4° C. to prevent microbial spoilage. It is transferred into the reactor via a supply line 7 and a peristaltic pump 8.
A recirculating line 9 is provided on the reactor comprising a length of flexible silicone tubing and a peristaltic pump 10. The peristaltic pump extracts the sludge from the reactor into the recirculation line. The candidate water-soluble biocide is introduced into this line 9 through a needle 11, which is fed by a syringe pump 12. Using this system it is possible to achieve “flash mixing” which ensures rapid contact of the water-soluble biocide with the sludge microorganisms. The internal diameter of the recirculating line was 8 mm and the flow velocity was 0.5 meters per second, which gave a contact time, between candidate water-soluble biocide and sludge of 3 seconds before it re-entered the reactor.
Treated effluent 17 is removed from the reactor into a collecting vessel 16 via an outlet line 15.
The reactor was charged with sludge obtained from the Municipal wastewater treatment works at Courly-Lyon, in France. This sludge provided the “seed” to start the process off. The reactor was then filled, to the 5 liter mark, with simulated wastewater, adjusted to approximately pH 7.5, and aeration was commenced.
Each weekday (i.e. 5 times per week), 13.3% of the bioreactor contents were withdrawn to maintain the equilibrium. This ensured a sludge age in the region of 7.5 days.
Also, each weekday, after the adjustments described in the preceding paragraph, candidate water-soluble biocide (as a dilute solution) was injected into the system via the flash mixing recirculating line. The dilute solution was prepared by dissolving 10 grams of sodium hydrogen carbonate in approximately 900 ml of deionised water then adding 5 grams of candidate water-soluble biocide and mixing well. The mixture was then made up to 1 liter with deionised water. The appropriate volume of this dilute solution was injected to achieve the required dose level.
The experiment was conducted for 52 days before decommissioning the system.
Compound X was evaluated in the test. This compound is a 75% aqueous solution of tetrakis(hydroxymethyl)phosphonium sulphate (THPS). Two concentrations were evaluated: 2 and 4 milligrams per liter per day.

sludge microorganisms [2] = details: 4 mg/l/day, pre-dilution, 52 days
Experimental: The equipment used in this test sequence was identical to that used for example 1 except that the reactor was not fitted with a recirculating line for flash mixing.
The procedure was identical to that used for example 1 except that the method of dosing Compound X was different. In this case, 5 grams of Compound X was mixed into a solution containing 5 grams of sodium hydrogen carbonate in 1 liter of deionised water. 4.0 ml of this solution was added to 500 ml of clarified wastewater which had been extracted from the bioreactor. The treated clarified wastewater was then returned to the bioreactor and normal operation of the bioreactor was resumed. The final concentration of Compound X in the bioreactor therefore equates to 4 mg per liter. This procedure was conducted daily, 5 times per week.
The experiment was conducted in parallel with example 1, i.e. for 52 days before decommissioning the system.
A Compound X concentration of 4 milligrams per liter per day was used.

[3] = tested on: municipal activated sludge; assay: Laboratory screening test for growth uncoupling by oxygen consumption pattern analysis (Oxitop BOD system); details: test biocides at 1, 2.5, 5, 10 and 25 mg/l; 2,4-dinitrophenol at 20 mg/l; 7 days at 20° C.
Text: A laboratory screening test was developed to determine the impact of chemical compounds on respiration parameters through an oxygen consumption pattern analysis using a model based on published work by Monod and Pirt^1. Growth uncoupling is characterised by an increase in oxygen consumption during bacterial growth in a synthetic growth medium. 1. Monod J. 1950, Ann Inst Pasteur, “La Technique de Culture Continue, Theorie et Applications”, 79:390-410. Monod J. 1942, “Recherches sur la Croissance des Cultures Bactériennes”. Paris Herman p. 210. Pirt S J. (1965) “The Maintenance Energy of Bacteria In Growing Cultures”. Proceedings of the Royal Society of London B 163, 224-231. “Principles of Water Quality Management”. Ed: W. W. Eckenfelder, Jr. CBI Publishing Company, Inc USA. […]
For the evaluation of proposed water-soluble biocides, the oxygen consumption kinetics are measured and, a process of computer iteration optimises the equation coefficients optimised to fit the oxygen consumption curve.
From the optimised coefficients, the degree of bacterial uncoupling can be calculated. […]
Three conventional water treatment biocides were evaluated as bacterial water-soluble biocides. […]
Based on the liquid sludge, 2,4-dinitrophenol was dosed at 20 mg/l, this being the known level at which significant uncoupling would result. The test biocides were each evaluated at 1, 2.5, 5, 10 and 25 mg/l. […]

Molecule	Growth Yield (sludge microorganisms [1]; 2 mg/l/day)	Specific Activity (sludge microorganisms [1]; 2 mg/l/day)	Growth Yield Reduction (sludge microorganisms [1]; 2 mg/l/day)	Growth Yield (sludge microorganisms [1]; 4 mg/l/day)	Specific Activity (sludge microorganisms [1]; 4 mg/l/day)	Growth Yield Reduction (sludge microorganisms [1]; 4 mg/l/day)	sludge growth (sludge microorganisms [1]; flash treatment, low dose levels)	concentration of protozoans and other higher organisms in the sludge (sludge microorganisms [1]; treated sludge relative to untreated)	filamentous bacteria in the sludge (sludge microorganisms [1]; treated systems vs untreated control)	Growth Yield (sludge microorganisms [2])	Specific Activity (sludge microorganisms [2])	Growth Yield Reduction (sludge microorganisms [2]; vs untreated control)	level of uncoupling (percentage uncoupling, FIG. 4) [3]
tetrakis(hydroxymethyl)phosphonium sulphate [Compound X]	0.202 g MLSS/g COD	0.582 g COD/g MLSS.d	27.7%	0.167 g MLSS/g COD	0.772 g COD/g MLSS.d	37.6%	significantly reducing sludge growth	significantly higher concentration	substantially absent	0.201 g MLSS/g COD	0.636 g COD/g MLSS.d	26.4%	
CCCCCCCCCCCC[N+](C)(C)C.[Cl-] [C, Dodecyltrimethylammonium chloride]													greater levels of uncoupling at significantly lower dose levels than the conventional water-soluble biocide, 2,4-dinitrophenol
